Consider 23 compounds from PubChem BioAssay AID330 (DTP/NCI, 2004).

“And” between values parts separate entries of the source, which are not always exact repeats. Equal entries are not always repeated. Toxic doses and inconclusive results are not listed.

The subject of this test is P388 leukemia ip, CD2F1 mice, survival T/C. The test is described as follows: NCI In Vivo Anticancer Drug Screen. Data for tumor model P388 Leukemia (intraperitoneal) in CD2F1 (CDF1) mice. Conditions: endpoint: median survival time, higher = longer survival. In short, it runs like this: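 Mice carrying the transplanted tumor received test compound or vehicle. Survival was recorded in each group, and the value is the treated-group measurement divided by that of the vehicle-treated control group.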

Where [1] appears, read: dose: 60.0 mg/kg/injection, schedule: Q01DX005 (ip), vehicle: saline with Tween-80.
Where [2] appears, read: dose: 120.0 mg/kg/injection, schedule: Q01DX005 (ip), vehicle: saline with Tween-80.
Setting [3] is: dose: 240.0 mg/kg/injection, schedule: Q01DX005 (ip), vehicle: saline with Tween-80.
[4] abbreviates: dose: 50.0 mg/kg/injection, schedule: Q01DX005 (ip), vehicle: Klucel (hydroxypropylcellulose) (HPC).
The mark [5] stands for this setting: dose: 100.0 mg/kg/injection, schedule: Q01DX005 (ip), vehicle: Klucel (hydroxypropylcellulose) (HPC).
The mark [6] stands for this setting: dose: 200.0 mg/kg/injection, schedule: Q01DX005 (ip), vehicle: Klucel (hydroxypropylcellulose) (HPC).
The mark [7] stands for this setting: dose: 50.0 mg/kg/injection, schedule: Q01DX005 (ip), vehicle: saline with Tween-80.
Where [8] appears, read: dose: 100.0 mg/kg/injection, schedule: Q01DX005 (ip), vehicle: saline with Tween-80.
Where [9] appears, read: dose: 100.0 mg/kg/injection, schedule: Q01DX001 (ip), vehicle: saline with Tween-80.
Setting [10] is: dose: 200.0 mg/kg/injection, schedule: Q01DX001 (ip), vehicle: saline with Tween-80.
Where [11] appears, read: dose: 400.0 mg/kg/injection, schedule: Q01DX001 (ip), vehicle: saline with Tween-80.
The mark [12] stands for this setting: dose: 50.0 mg/kg/injection, schedule: Q01DX009 (ip), vehicle: Klucel (hydroxypropylcellulose) (HPC).
Setting [13] is: dose: 100.0 mg/kg/injection, schedule: Q01DX009 (ip), vehicle: Klucel (hydroxypropylcellulose) (HPC).
The mark [14] stands for this setting: dose: 200.0 mg/kg/injection, schedule: Q01DX009 (ip), vehicle: Klucel (hydroxypropylcellulose) (HPC).
Where [15] appears, read: dose: 25.0 mg/kg/injection, schedule: Q01DX009 (ip), vehicle: Klucel (hydroxypropylcellulose) (HPC).
Where [16] appears, read: dose: 50.0 mg/kg/injection, schedule: Q01DX009 (ip), vehicle: saline with Tween-80.
[17] abbreviates: dose: 100.0 mg/kg/injection, schedule: Q01DX009 (ip), vehicle: saline with Tween-80.
The mark [18] stands for this setting: dose: 200.0 mg/kg/injection, schedule: Q01DX009 (ip), vehicle: saline with Tween-80.

Take `CSc1nc(NC2OCC(OC(C)=O)C(OC(C)=O)C2OC(C)=O)c(N=C(C)C(C)=O)c(=O)[nH]1` (stereo not given): the T/C was 95 % of control under setting [1], 108 % of control under setting [2] and 95 % of control under setting [3].

For `Cc1ccc(S(=O)(=O)CC(=O)CC(=O)C(N)=O)cc1`, the T/C was 109 % of control under setting [1], 108 % of control under setting [2] and 104 % of control under setting [3].

Take `Cc1ncc(C(=O)O)n1C(C)c1ccccc1` (stereo not given): the T/C by setting is: under setting [1], 108 % of control; under setting [2], 103 % of control; under setting [3], 110 % of control.

Turning to `O=C1c2ccccc2C(=O)N1Cc1ccccc1Br`, the T/C is 103 % of control under setting [4], 101 % of control under setting [5] and 100 % of control under setting [6].

On to `O=C(OC(C(=O)O)C(OC(=O)c1ccccc1)C(=O)O)c1ccccc1` (stereo not given), for which the T/C is 106 % of control under setting [7]; 99 % of control under setting [8]; 98 % of control (dose: 200.0 mg/kg/injection, schedule: Q01DX005 (ip), vehicle: saline with Tween-80).

For `O=C(O)c1cccc(C(=O)O)c1S(=O)(=O)c1ccccc1`, the T/C reads like this: under setting [9], 99 % of control; under setting [10], 98 % of control; under setting [11], 95 % of control.

Take `Cc1cc(=O)n(-c2cccc3ccccc23)c(C)c1C(=O)O`: the T/C under setting [7] is 102 % of control and the T/C under setting [8] was 94 % of control.

Turning to `CCOC(=O)c1cn2ccccc2c(C(C)=O)c1=N`, the T/C was 100 % of control (dose: 100.0 mg/kg/injection, schedule: Q04DX003 (ip), vehicle: saline); 100 % of control (dose: 200.0 mg/kg/injection, schedule: Q04DX003 (ip), vehicle: saline); 94 % of control (dose: 400.0 mg/kg/injection, schedule: Q04DX003 (ip), vehicle: saline).

`c1cnc2c(NC3CCCCC3)ncnc2n1`: the T/C under setting [12] was 100 % of control, the T/C under setting [13] was 98 % of control and the T/C under setting [14] was 97 % of control.

`S=P1(Sc2ccccc2)Oc2ccccc2O1`: the T/C reads like this: (dose: 12.5 mg/kg/injection, schedule: Q01DX001 (ip), vehicle: saline with Tween-80) 99 % of control; (dose: 25.0 mg/kg/injection, schedule: Q01DX001 (ip), vehicle: saline with Tween-80) 100 % of control; (dose: 50.0 mg/kg/injection, schedule: Q01DX001 (ip), vehicle: saline with Tween-80) 106 % of control; under setting [9], 90 % of control.

As to `CCSc1ccc(C(=O)C2(C)Cc3ccccc3CN2)cc1` (stereo not given), the T/C is 100 % of control under setting [9], 99 % of control under setting [10] and 98 % of control under setting [11].

Take `C=C[C@]1(C)C[C@@H](OC(=O)CO)[C@@]2(C)[C@H](C)CC[C@]3(CCC(=O)[C@H]32)[C@@H](C)[C@@H]1O`: the T/C (dose: 12.5 mg/kg/injection, schedule: Q01DX009 (ip), vehicle: Klucel (hydroxypropylcellulose) (HPC)) is 101 % of control; the T/C under setting [15] is 97 % of control; the T/C under setting [12] is 101 % of control and 108 % of control and 94 % of control; the T/C (dose: 150.0 mg/kg/injection, schedule: Q01DX009 (ip), vehicle: Klucel (hydroxypropylcellulose) (HPC)) is 100 % of control and 95 % of control; the T/C under setting [14] was 104 % of control and 107 % of control; the T/C (dose: 400.0 mg/kg/injection, schedule: Q01DX009 (ip), vehicle: Klucel (hydroxypropylcellulose) (HPC)) is 107 % of control.

Turning to `CCCCC/C(C=C(C#N)C#N)=C/c1ccccc1`, the T/C by setting is: (dose: 25.0 mg/kg/injection, schedule: Q01DX009 (ip), vehicle: saline with Tween-80) 103 % of control and 86 % of control; under setting [16], 100 % of control and 123 % of control and 91 % of control; under setting [17], 119 % of control and 92 % of control; under setting [18], 111 % of control.

`COc1cccc(/C=C/c2ccnnc2)c1OC`: the T/C is, setting by setting: (dose: 50.0 mg/kg/injection, schedule: Q01DX009 (ip), vehicle: saline) 104 % of control; (dose: 100.0 mg/kg/injection, schedule: Q01DX009 (ip), vehicle: saline) 108 % of control; (dose: 200.0 mg/kg/injection, schedule: Q01DX009 (ip), vehicle: saline) 100 % of control.

For `Cc1nc2ccccc2c(N)c1-c1cc(C)c2c(C)nc3ccccc3c2n1`, the T/C was 88 % of control (dose: 25.0 mg/kg/injection, schedule: Q01DX005 (ip), vehicle: Klucel (hydroxypropylcellulose) (HPC)); 87 % of control under setting [4]; 90 % of control under setting [5]; 88 % of control under setting [6].

Take `CCOC(=O)c1ccc(N(CCOS(C)(=O)=O)CCOS(C)(=O)=O)cc1`: the T/C is, setting by setting: under setting [16], 190 % of control; under setting [17], 215 % of control; (dose: 100.0 mg/kg/injection, schedule: Q04DX003 (ip), vehicle: saline with Tween-80) 154 % of control; (dose: 132.0 mg/kg/injection, schedule: Q04DX003 (ip), vehicle: saline with Tween-80) 186 % of control; under setting [18], 95 % of control; (dose: 200.0 mg/kg/injection, schedule: Q04DX003 (ip), vehicle: saline with Tween-80) 150 % of control and 195 % of control. For the setting “dose: 300.0 mg/kg/injection, schedule: Q04DX003 (ip), vehicle: saline with Tween-80”, the T/C was 172 % of control.

Regarding `CC(=O)OCC(OC(C)=O)C(OC(C)=O)C(OC(C)=O)C(C#N)OC(C)=O` (stereo not given), the T/C reads like this: under setting [17], 91 % of control; under setting [18], 87 % of control; (dose: 400.0 mg/kg/injection, schedule: Q01DX009 (ip), vehicle: saline with Tween-80) 91 % of control; (dose: 600.0 mg/kg/injection, schedule: Q01DX009 (ip), vehicle: saline with Tween-80) 87 % of control.

Consider `C=CCNc1ncnc2sc(SC)nc12`, for which the T/C is 100 % of control (dose: 100.0 mg/kg/injection, schedule: Q04DX002 (ip), vehicle: distilled water + alcohol); 104 % of control (dose: 200.0 mg/kg/injection, schedule: Q04DX002 (ip), vehicle: distilled water + alcohol); 99 % of control (dose: 400.0 mg/kg/injection, schedule: Q04DX002 (ip), vehicle: distilled water + alcohol).

Take `CCCCNC(=S)N/N=C1/C=C2C=CC3C(CCC4(C)C(OC(C)=O)CCC34)C2(C)CC1` (stereo not given): the T/C is 99 % of control (dose: 100.0 mg/kg/injection, schedule: Q01DX001 (ip), vehicle: saline); 98 % of control (dose: 200.0 mg/kg/injection, schedule: Q01DX001 (ip), vehicle: saline); 97 % of control (dose: 400.0 mg/kg/injection, schedule: Q01DX001 (ip), vehicle: saline).

With `Nc1nc(N)sc(=S)n1`, the T/C runs as follows: under setting [15], 100 % of control; under setting [12], 107 % of control; under setting [13], 94 % of control; under setting [14], 101 % of control.

As to `COc1ccc(C2[C@H](C(=O)O)c3ccccc3C(=O)N2Cc2ccccc2)cc1` (stereo not given in full), the T/C is 101 % of control (dose: 100.0 mg/kg/injection, schedule: Q04DX002 (ip), vehicle: saline with Tween-80); 104 % of control (dose: 200.0 mg/kg/injection, schedule: Q04DX002 (ip), vehicle: saline with Tween-80); 103 % of control (dose: 400.0 mg/kg/injection, schedule: Q04DX002 (ip), vehicle: saline with Tween-80).

Consider `CC1(C)OC(c2ccccc2)=Nc2ccccc21`, for which the T/C (dose: 100.0 mg/kg/injection, schedule: Q04DX002 (ip), vehicle: saline) was 104 % of control; the T/C (dose: 200.0 mg/kg/injection, schedule: Q04DX002 (ip), vehicle: saline) is 103 % of control; the T/C (dose: 400.0 mg/kg/injection, schedule: Q04DX002 (ip), vehicle: saline) is 99 % of control.

For the compound `C=C1C(=O)O[C@H]2C3OC3(C)CC/C=C(/C(=O)OC)[C@@H](OC(C)=O)[C@H](OC(=O)C3(C)OC3C)[C@H]12` (stereo not given in full), the T/C reads like this: (dose: 1.87 mg/kg/injection, schedule: Q01DX009 (ip), vehicle: Klucel (hydroxypropylcellulose) (HPC)) 112 % of control; (dose: 3.75 mg/kg/injection, schedule: Q01DX009 (ip), vehicle: Klucel (hydroxypropylcellulose) (HPC)) 108 % of control; (dose: 7.5 mg/kg/injection, schedule: Q01DX009 (ip), vehicle: Klucel (hydroxypropylcellulose) (HPC)) 107 % of control.
